Assay results from publication PMC3891892 (Nature, 2013).
≈ marks a conversion by molar mass, not a printed value.

Assays:
[1] = tested on: recombinant virus possessing Hangzhou/1 HA; assay type: binding, influenza A virus (H7N9)
[2] = tested on: CA04; set-up: species or system mice; settings: mouse, in vivo, po
[3] = tested on: CA04 (A/California/04/2009; H1N1); assay: microbe, parasite or virus in culture; assay type: cell-based; settings: Influenza A virus, H1N1, MDCK, read-out: IC50, plaque reduction assay

Structure (SMILES)	effect of inhibition of NA enzymatic function on glycan binding [1]	therapeutic effectiveness [2]	IC50 [3] [µg/mL]
CC(=O)N[C@H]1[C@H]([C@H](O)[C@H](O)CO)OC(C(=O)O)=C[C@@H]1N=C(N)N [Zanamivir, zanamivir]	substantial increases in binding to α2–3 linked sialosides	–	–
NC(=O)c1nc(F)c[nH]c1=O [favipiravir]	–	clear therapeutic effectiveness	1.2 (≈ 7.64 µM)
